Measured values from patent US20100036088A1, “Selective poly-N-substituted glycine antibiotics” (priority 2008, published 2010).
Where two headings read alike, the source gives them in different places. Numbered stars: 1 amine (or outer) side, 2 acyl side, 3 side chain; on linkers, the order of the positions; unused ones are H or OH. Square brackets hold non-standard residues; d marks the D form. Peptide text beside a SMILES is read from it. Gly(N-CH2CH2-imidazol-4-yl) = O=C(O)CNCCc1c[nH]cn1; X1 = CC(C)[C@H](C)N(CC(=O)[*:2])[*:1]; Nspe = C[C@H](NCC(=O)O)c1ccccc1; Nlys = NCCCCNCC(=O)O

What was measured:
human erythrocytes = assay: Hemolysis assay; format: cell-based
Description: Hemolysis assays. Erythrocytes were isolated from freshly drawn, heparanized human blood and resuspended to 20 vol % in PBS (pH 7.4). In a 96-well microtiter plate, 100 μL erythrocyte suspension was added to 100 μL peptoid solution in PBS (prepared by 1:2 serial dilutions), or 100 μL PBS in the case of negative controls. 100% hemolysis wells contained 100 μL blood cell suspension with 100 μL 0.2 vol % Triton X-100. The plate was incubated for 1 h at 37° C., then each well was diluted with 150 μL PBS. The plate was then centrifuged at 1200 g for 15 min, 100 μL of the supernatant from each well transferred to a fresh microtiter plate, and A350 measured.
Hemolysis assays. Erythrocytes were isolated from freshly drawn, heparanized human blood and resuspended in PBS (pH 7.4) to make a 20% volume suspension. Peptoid solutions were prepared by serial dilution (2:1) in a 96-well microtiter plate. For test wells, 100 μL of erythrocyte suspension was added to 100 μL of peptoid solution in PBS; PBS without peptoid was used as the negative control and 0.2 vol % Triton X-100 as the positive control that indicates 100% hemolysis. After 1 hour incubation at 37° C., each well was diluted with 150 μL PBS. Plates were then centrifuged at 1,200×g for 15 minutes to pellet the cells. 30 μL of the supernatant from each well were transferred to the corresponding well of a second 96-well plate that contains 70 μL PBS.

B. subtilis (ATCC 6633) = format: cell-based; conditions: ATCC 6633
Description: (§1) Whereas the preceding generation of molecules was designed to elucidate structure function relationships of specific molecular parameters (chirality, length, hydrophobicity, etc.), another generation compounds were designed explicitly to explore effects on selectivity. Antimicrobial activity of these compounds was tested against bacterial strains E. coli (ATTC 35218) and B. subtilis (ATTC 6633) in cation-adjusted MHB using the microdilution protocols previously described. The sequences, antimicrobial activities, hemolytic activities, and metabolic inhibitory concentrations against NIH 3T3 mouse fibroblast cells are summarized in Table 3 and the rationale of their design is described below.
(§2) The potencies of all compounds were determined against representative Gram-negative (E. coli ATCC 35218) and Gram-positive (B. subtilis ATCC 6633) biosafety level 1 (BSL1) organisms. In addition to hemolytic activity, the conventional measure of toxicity to mammalian cells, the effect of each ampetoid on NIH 3T3 mouse fibroblast cells was determined using the MTS tetrazolium salt-based calorimetric assay. While hemolysis measures the degree to which erythrocytes are lysed, the MTS assay indirectly quantifies the extent to which cellular metabolic activity is inhibited.
(§3) Screening antibacterial assays. MICs were determined in 96-well microtiter plates in accordance with CLSI M7-A6 protocols. Peptoid solutions with 50 μL total volume were prepared using 2:1 serial dilutions. 50 μL of bacteria inoculum (1×10^6 CFU/mL) prepared in cation-adjusted Mueller-Hinton broth (CAMHB) was added to test wells. Control wells contained 100 μL MHB (no growth) or 50 μL inoculums with 50 μL MHB with no peptoid. […] Reported values were reproducible over three experiments, each containing two parallel trials.

E. coli (ATCC 35218) = format: cell-based; conditions: ATCC 35218
Description: as §1, §2, §3

[1] = MTS assay, metabolic inhibition; format: cell-based, mouse
Description: as §2
MTS assays. NIH/3T3 cells (ATCC Corporation) cultured at 37° C. and 5% CO2 in complete Dulbecco's modified eagle's media (CDMEM) supplemented with 1% sodium pyruvate, 1% penicillin-streptomycin, 1.5 g/L NaHCO3, and 10% fetal bovine serum. Cells were seeded at a density of 5,000 cells per well for NIH/3T3 cells in 96-well plates (100 μl total volume). A peptoid solution plate (100 μL total volume per well) was prepared by serial dilution of aqueous peptoid stock solution in Hank's balanced salt solution (HBSS) media. The day-old cell monolayers were washed with HBSS and media was replaced with 100 μL HBSS. The contents of the peptoid solution plate were transferred onto corresponding wells of the cell monolayer plate, and 40 μL MTS reagent (Promega, Inc.) was added to each well. After incubating for 3 hours at 37° C., absorbance at 490 nm was determined. […] The average of six replicates is reported.

Row | SMILES | B. subtilis MIC (B. subtilis (ATCC 6633)) | E. coli MIC (E. coli (ATCC 35218)) | IC50 [1] | HD10 (human erythrocytes; Table 6) | HD50 (human erythrocytes; Table 6) | B. subtilis MIC (B. subtilis (ATCC 6633); Table 6) | E. coli MIC (E. coli (ATCC 35218); Table 6) | IC50 ([1]; Table 6, NIH 3T3 mouse fibroblast cells) | HD10 (human erythrocytes) | HD50 (human erythrocytes)
1 | C[C@H](c1ccccc1)N(CC(N)=O)C(=O)CN(C(=O)CN(CCCCN)C(=O)CN(C(=O)CN(C(=O)CN(CCCCN)C(=O)CN(C(=O)CN(C(=O)CN(CCCCN)C(=O)CN(C(=O)CN(C(=O)CNCCCCN)[C@@H](C)c1ccccc1)[C@H](C)c1ccccc1)[C@@H](C)c1ccccc1)[C@H](C)c1ccccc1)[C@@H](C)c1ccccc1)[C@H](C)c1ccccc1)[C@@H](C)c1ccccc1 [1-Nrpe3,6,9,12, H-(Nlys-Nspe-Nrpe)4-NH2] |  |  |  | 16 µM | 67 µM | 1.6 µM | 6.3 µM | 3.8 µM |  | 
2 | C[C@@H](c1ccccc1)N(CC(N)=O)C(=O)CN(C(=O)CN(CCCCN)C(=O)CN(C(=O)CN(C(=O)CN(CCCCN)C(=O)CN(CCc1cnc[nH]1)C(=O)CN(C(=O)CN(CCCCN)C(=O)CN(C(=O)CN(C(=O)CNCCCCN)[C@@H](C)c1ccccc1)[C@@H](C)c1ccccc1)[C@@H](C)c1ccccc1)[C@@H](C)c1ccccc1)[C@@H](C)c1ccccc1)[C@@H](C)c1ccccc1 [1-Nhis6] | 1.6 µM | 25 µM |  |  |  |  |  |  | 170 µM | > 200 µM
3 | CC(C)[C@H](C)N(CC(=O)N(CCCCN)CC(=O)N(CC(=O)N(CC(=O)N(CCCCN)CC(=O)N(CC(=O)N(CC(=O)N(CCCCN)CC(=O)N(CC(=O)N(CC(N)=O)[C@@H](C)c1ccccc1)[C@@H](C)c1ccccc1)[C@@H](C)C(C)C)[C@@H](C)C(C)C)[C@@H](C)c1ccccc1)[C@@H](C)c1ccccc1)C(=O)CN(C(=O)CNCCCCN)[C@@H](C)C(C)C [1-Nsdp2,3,8,9, H-(Nlys-Nsdp-Nsdp-Nlys-Nspe-Nspe)2-NH2] (H-[Nlys][X1][X1][Nlys][Nspe][Nspe][Nlys][X1][X1][Nlys][Nspe][Nspe]-NH2) |  |  | 19 µM |  |  |  |  |  | 77 µM | > 200 µM
4 | C[C@H](NCC(=O)N(CC(=O)N(CCCCN)CC(=O)N(CC(=O)N(CC(=O)N(CCCCN)CC(=O)N(CC(=O)N(CC(=O)N(CCCCN)CC(=O)N(CC(=O)N(CC(=O)N(CCCCN)CC(N)=O)[C@@H](C)c1ccccc1)[C@@H](C)c1ccccc1)[C@@H](C)c1ccccc1)[C@@H](C)c1ccccc1)[C@@H](C)c1ccccc1)[C@@H](C)c1ccccc1)[C@@H](C)c1ccccc1)c1ccccc1 [1C, H-(Nspe-Nspe-Nlys)4-NH2] (H-[Nspe][Nspe][Nlys][Nspe][Nspe][Nlys][Nspe][Nspe][Nlys][Nspe][Nspe][Nlys]-NH2) | 1.6 µM | 6.3 µM | 5.6 µM |  |  |  |  |  | 25 µM | > 100 µM
5 | C[C@H](NCC(=O)N(CCCCN)CC(=O)N(CC(=O)N(CCCCN)CC(=O)N(CCCCN)CC(=O)N(CCCCN)CC(=O)N(CC(=O)N(CCCCN)CC(=O)N(CC(=O)N(CCCCN)CC(=O)N(CCCCN)CC(=O)N(CC(N)=O)[C@@H](C)c1ccccc1)[C@@H](C)c1ccccc1)[C@@H](C)c1ccccc1)[C@@H](C)c1ccccc1)c1ccccc1 [1B-Nlys4,6,10, H-(Nspe-Nlys)2-Nlys2-(Nspe-Nlys)2-Nlys-Nspe)-NH2] (H-[Nspe][Nlys][Nspe][Nlys][Nlys][Nlys][Nspe][Nlys][Nspe][Nlys][Nlys][Nspe]-NH2) | 1.6 µM | >100 µM | > 100 µM |  |  |  |  |  |  | 
6 | C[C@@H](c1ccccc1)N(CC(N)=O)C(=O)CN(CCCCN)C(=O)CN(C(=O)CN(C(=O)CN(CCCCN)C(=O)CN(C(=O)CN(C(=O)CN(CCCCN)C(=O)CN(C(=O)CN(C(=O)CNCCCCN)[C@@H](C)c1ccccc1)[C@@H](C)c1ccccc1)[C@@H](C)c1ccccc1)[C@@H](C)c1ccccc1)[C@@H](C)c1ccccc1)[C@@H](C)c1ccccc1 [111mer, H-(Nlys-Nspe-Nspe)3-Nlys-Nspe-NH2] (H-[Nlys][Nspe][Nspe][Nlys][Nspe][Nspe][Nlys][Nspe][Nspe][Nlys][Nspe]-NH2) |  |  | 11 µM |  |  |  |  |  | 103 µM | > 200 µM
7 | C[C@@H](c1ccccc1)N(CC(=O)N(CCc1c[nH]cn1)CC(=O)N(CCCCN)CC(=O)N(CC(=O)N(CCc1c[nH]cn1)CC(=O)N(CCCCN)CC(=O)N(CC(=O)N(CCc1c[nH]cn1)CC(=O)N(CCCCN)CC(=O)N(CC(=O)N(CCc1c[nH]cn1)CC(N)=O)[C@@H](C)c1ccccc1)[C@@H](C)c1ccccc1)[C@@H](C)c1ccccc1)C(=O)CNCCCCN [1-Nhis3,6,9,12] (H-[Nlys][Nspe][Gly(N-CH2CH2-imidazol-4-yl)][Nlys][Nspe][Gly(N-CH2CH2-imidazol-4-yl)][Nlys][Nspe][Gly(N-CH2CH2-imidazol-4-yl)][Nlys][Nspe][Gly(N-CH2CH2-imidazol-4-yl)]-NH2) | 100 µM | >100 µM |  |  |  |  |  |  | >200/>200 μM | >200/>200 μM
8 | C[C@H](NCC(=O)N(CCCCN)CC(=O)N(CC(=O)N(CCCCN)CC(=O)N(CCCCN)CC(=O)N(CCCCN)CC(=O)N(CC(=O)N(CCCCN)CC(=O)N(CC(=O)N(CCCCN)CC(=O)N(CCCCN)CC(=O)N(CC(=O)N(CC(=O)N(CCCCN)CC(=O)N(CC(N)=O)[C@@H](C)c1ccccc1)[C@@H](C)c1ccccc1)[C@@H](C)c1ccccc1)[C@@H](C)c1ccccc1)[C@@H](C)c1ccccc1)[C@@H](C)c1ccccc1)c1ccccc1 [1B15mer-Nlys4,6,10, H-(Nspe-Nlys)2-Nlys2-(Nspe-Nlys)2-Nlys-Nspe2-Nlys-Nspe-NH2] (H-[Nspe][Nlys][Nspe][Nlys][Nlys][Nlys][Nspe][Nlys][Nspe][Nlys][Nlys][Nspe][Nspe][Nlys][Nspe]-NH2) | 0.78 µM | >100 µM | 40 µM |  |  |  |  |  |  | 

The next lines start with results.

Row | B. subtilis MIC (B. subtilis (ATCC 6633)) | E. coli MIC (E. coli (ATCC 35218)) | IC50 [1] | SMILES | HD10 (human erythrocytes; Table 6) | HD50 (human erythrocytes; Table 6) | B. subtilis MIC (B. subtilis (ATCC 6633); Table 6) | E. coli MIC (E. coli (ATCC 35218); Table 6) | IC50 ([1]; Table 6, NIH 3T3 mouse fibroblast cells) | HD10 (human erythrocytes) | HD50 (human erythrocytes)
9 | 1.6 µM | 6.3 µM | 4.9 µM | C[C@H](NCC(=O)N(CCCCN)CC(=O)N(CC(=O)N(CC(=O)N(CCCCN)CC(=O)N(CC(=O)N(CC(=O)N(CCCCN)CC(=O)N(CC(=O)N(CC(=O)N(CCCCN)CC(=O)N(CC(N)=O)[C@@H](C)c1ccccc1)[C@@H](C)c1ccccc1)[C@@H](C)c1ccccc1)[C@@H](C)c1ccccc1)[C@@H](C)c1ccccc1)[C@@H](C)c1ccccc1)[C@@H](C)c1ccccc1)c1ccccc1 [1B, H-(Nspe-Nlys-Nspe)4-NH2] (H-[Nspe][Nlys][Nspe][Nspe][Nlys][Nspe][Nspe][Nlys][Nspe][Nspe][Nlys][Nspe]-NH2) |  |  |  |  |  |  | > 100 µM
10 | 1.6 µM |  | 15 µM | C[C@@H](c1ccccc1)N(CC(N)=O)C(=O)CN(Cc1ccccc1)C(=O)CN(CCCCN)C(=O)CN(Cc1ccccc1)C(=O)CN(Cc1ccccc1)C(=O)CN(CCCCN)C(=O)CN(Cc1ccccc1)C(=O)CN(Cc1ccccc1)C(=O)CN(CCCCN)C(=O)CN(Cc1ccccc1)C(=O)CN(Cc1ccccc1)C(=O)CNCCCCN [1ach-Nspe12, H-(Nlys-Npm-Npm)3-(Nlys-Npm-Nspe)-NH2] |  |  |  |  |  | 164 µM | > 200 µM
11 |  |  | 8.5 µM | C[C@H](NCC(=O)N(CC(=O)N(CCCCN)CC(=O)N(CC(=O)N(CCCCN)CC(=O)N(CC(=O)N(CCCCN)CC(=O)N(CC(=O)N(CC(=O)N(CC(=O)N(CC(=O)N(CCCCN)CC(N)=O)[C@@H](C)c1ccccc1)[C@@H](C)c1ccccc1)[C@@H](C)c1ccccc1)[C@@H](C)c1ccccc1)[C@@H](C)c1ccccc1)[C@@H](C)c1ccccc1)[C@@H](C)c1ccccc1)c1ccccc1 [1scr, H-(Nspe)2-(Nlys-Nspe)3-(Nspe)3-Nlys-NH2] (H-[Nspe][Nspe][Nlys][Nspe][Nlys][Nspe][Nlys][Nspe][Nspe][Nspe][Nspe][Nlys]-NH2) |  |  |  |  |  | 64 µM | > 200 µM
